By Kd is commonly meant the concentration at which binding is half-saturated.

The values below come from article PMC2790015 (Journal of molecular biology, 2009).

The test system of one data set is DNA alone. Kind of data set: DNA hybridization controls for the AraC experiments. In kind it is binding. The note with it: compared with no sugar; sugars 10 mM; data not shown.
A further data set has as its system adjacent DNA half-sites. The note with it: addition of arabinose; cited from earlier work.
Data set [1] deals with K4 and E4 heterodimerizing coiled-coil peptides. Kind of data set: DNA-assisted binding assay. The note with it: GC to AT substituted DNA versus original DNA sequence.
Data set [2] has as its target T1, K4 coiled-coil peptide (modified: N-terminal Met, Val to Trp, C-terminal Ala), unconjugated.
T1 peptide: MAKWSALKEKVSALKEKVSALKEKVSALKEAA
In words: ITC.

For the molecule `O[C@@H]1[C@@H](O)[C@@H](O)CO[C@H]1O` [arabinose], the “effect of sugar on DNA hybridization” value with DNA alone is on record as “DNA hybridization is not affected”. For the same molecule, in the data set with adjacent DNA half-sites, the “increase in amount of AraC capable of binding to adjacent DNA half-sites” value was 40 -fold.

With `OC[C@H]1OC(O)[C@H](O)[C@@H](O)[C@@H]1O` (some centres unmarked) [glucose], in the data set on DNA alone, the “effect of sugar on DNA hybridization” value is “DNA hybridization is not affected”.

Take “GC to AT substituted DNA sequences: K4 and E4 conjugated to GC to AT substituted 5’-TTTTTTGGGTTATAC-3’ and 5’-TTTTTTGTATAAC-3’ (K4 and E4 peptides conjugated)”: the “decrease in the interaction between the conjugates” value in data set [1] is on record as 3 -fold.

Molecule MAEWSALEKEVSALEKEVSALEKEVSALEKAA [E4 coiled-coil peptide (modified: N-terminal Met, Val to Trp, C-terminal Ala), unconjugated] had a Kd in data set [2] of roughly 1000 nM.
